From patent US20240209053A1 (Protagonist Therapeutics, Inc., priority 2021, published 2024)
Numbered stars: 1 amine (or outer) side, 2 acyl side, 3 side chain; on linkers, the order of the positions; unused ones are H or OH. Bridge positions count the residues as written; N and C are the ends. Square brackets hold non-standard residues; d marks the D form. Side chains are listed from the residue outwards. Peptide text beside a SMILES is read from it. * marks the point of attachment. Dip = N[C@H](C(=O)O)C(c1ccccc1)c1ccccc1; Hag = O=C([C@H](CCC=[*:3])N[*:1])[*:2]; Palmitoyl = CCCCCCCCCCCCCCCC(=O)*; β3hF = N[C@H](CC(=O)O)Cc1ccccc1; Isovaleryl = CC(C)CC(=O)*; Ahx = NCCCCCC(=O)O

Legend:
[1] = molecular target: T1, human ferroportin (SLC40A1) (Homo sapiens, UniProt Q9NP59); experiment: FPN activity assay: internalization/degradation of ferroportin-GFP in stably transfected HEK293 cells (decrease in GFP fluorescence); assay type: cell-based; conditions: compound incubated at least 18 hours
T1 sequence (Q9NP59 1-571): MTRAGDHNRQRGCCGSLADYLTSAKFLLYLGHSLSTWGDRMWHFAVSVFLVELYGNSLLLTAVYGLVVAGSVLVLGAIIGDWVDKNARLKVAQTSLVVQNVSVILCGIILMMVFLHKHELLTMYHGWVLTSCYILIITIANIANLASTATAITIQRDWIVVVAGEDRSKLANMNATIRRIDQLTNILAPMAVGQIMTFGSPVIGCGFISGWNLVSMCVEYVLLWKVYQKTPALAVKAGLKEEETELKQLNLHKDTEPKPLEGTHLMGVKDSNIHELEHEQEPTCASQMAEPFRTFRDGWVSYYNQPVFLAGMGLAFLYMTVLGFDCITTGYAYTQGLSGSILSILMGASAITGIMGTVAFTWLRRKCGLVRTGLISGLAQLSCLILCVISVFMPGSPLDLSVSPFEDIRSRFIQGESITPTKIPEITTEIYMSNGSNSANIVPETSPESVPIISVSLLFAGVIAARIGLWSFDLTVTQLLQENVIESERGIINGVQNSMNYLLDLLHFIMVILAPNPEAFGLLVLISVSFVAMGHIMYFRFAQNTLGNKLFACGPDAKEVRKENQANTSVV
Method: Peptide analogues were tested in vitro for induction of internalization of the human ferroportin protein. Following internalization, the ferroporin protein is degraded. The assay used (FPN activity assay) measures a decrease in fluorescence of the receptor. The cDNA encoding the human ferroportin (SLC40A1) was cloned from a cDNA clone from Origene (NM_014585). The DNA encoding the ferroportin was amplified by PCR using primers also encoding terminal restriction sites for subcloning, but without the termination codon. The ferroportin receptor was subcloned into a mammalian GFP expression vector containing a neomycin (G418) resistance marker in such that the reading frame of the ferroportin was fused in frame with the GFP protein. The fidelity of the DNA encoding the protein was confirmed by DNA sequencing. HEK293 cells were used for transfection of the ferroportin-GFP receptor expression plasmid. The cells were grown according to standard protocol in growth medium and transfected with the plasmids using Lipofectamine (manufacturer's protocol, Invitrogen). The cells stably expressing ferroportin-GFP were selected using G418 in the growth medium (in that only cells that have taken up and incorporated the cDNA expression plasmid survive) and sorted several times on a Cytomation MoFloTM cell sorter to obtain the GFP-positive cells (488 nm/530 nm). The cells were propagated and frozen in aliquots. […] Compound was added to desired final concentration for at least 18 hours in the incubator. […] Compound was added to desired final concentration for at least 18 hours but no more than 24 hours in the incubator. […] The “RI” in RI-Mini-Hepcidin refers to Retro Inverse. A retro inverse peptide is a peptide with a reversed sequence in all D amino acids. An example is that […] becomes […]. The EC50 of these reference compounds for ferroportin internalization/degradation was determined according to the FPN activity assay described above. These peptides served as control standards.

ferroportin = molecular target: T2, ferroportin (Homo sapiens, UniProt Q9NP59); experiment: T47D cell-based ferroportin internalization assay in presence of 0.5% mouse serum albumin (MSA); conditions: T47D cells
T2 sequence (Q9NP59 1-571): T1 sequence (Q9NP59 1-571)
Method: The potency of the peptides in causing ferroportin internalization was evaluated in a T47D cell-based assay. […] In this internalization assay, the potency of the test peptides was evaluated in presence of serum albumin which is the main protein component in the blood. T47D cells were maintained in RPMI media (containing required amount of fetal bovine serum) and regularly sub-cultured. In preparation for the assay, the cells were seeded in 96-well plates at a density of 80-100 k cells per well in 100 ul volume and allowed to rest overnight. On the next day, test peptides were first prepared in dilution series (10-point series, starting concentration of ˜5 μM, typically 3-4×fold dilution steps), all with 0.5% mouse serum albumin (MSA purified from mouse serum; Sigma, A3139). The test peptide dilution series were allowed to incubate at room temperature for 30 min. Then the media was aspirated from the 96-well cell plate and test peptide dilution series were added. After 1 hr incubation, the media with test peptides was aspirated out and AF647-conjugated detection peptide was added at fixed concentration of 200 nM. The AF647-conjugated detection peptide was previously verified to bind to ferroportin and cause its internalization. The cells were washed again after a 2 hr incubation in preparation for flow cytometry analysis. The Median Fluorescence Intensity (MFI) of the AF647-positive population was measured (after removing dead cells and non-singlets from the analysis). The MFI values were used to generate a dose-response curve and obtain IC50 potencies for the test peptides. The IC50 potencies were calculated by using 4-parameter non-linear fitting function in Graphpad Prism (Table 6A).

| Structure (SMILES) | IC50 [1] [nM] | IC50 (ferroportin) [nM] |
| --- | --- | --- |
| CCCCCCCCCCCCCCCC(=O)NCCCCCC(=O)NCCCC[C@H](NC(=O)C[C@H](Cc1ccccc1)NC(=O)[C@@H]1CC=CCC[C@H](NC(=O)CC(C)C)C(=O)N[C@@H]([C@@H](C)O)C(=O)N[C@@H](Cc2c[nH]cn2)C(=O)N[C@@H](C(c2ccccc2)c2ccccc2)C(=O)N2CCC[C@H]2C(=O)N[C@@H](C)C(=O)N[C@@H]([C@@H](C)CC)C(=O)N1)C(=O)N[C@H](CCCCN)C(N)=O [Compd 26] | 10 to 100 | 10 to 100 |
| CCCCCCCCCCCCCCCC(=O)NCCCCCC(=O)NCCCC[C@H](NC(=O)C[C@H](Cc1ccccc1)NC(=O)[C@@H]1CCC=CC[C@H](NC(=O)CC(C)C)C(=O)N[C@@H]([C@@H](C)O)C(=O)N[C@@H](Cc2c[nH]cn2)C(=O)N[C@@H](C(c2ccccc2)c2ccccc2)C(=O)N2CCC[C@H]2C(=O)N[C@@H](C)C(=O)N[C@@H]([C@@H](C)CC)C(=O)N1)C(=O)N[C@H](CCCCN)C(N)=O [Compd 27] | 10 to 100 | 10 to 100 |
| CCCCCCCCCCCCCCCC(=O)NCCCCCC(=O)NCCCC[C@H](NC(=O)C[C@H](Cc1ccccc1)NC(=O)[C@@H]1CCCC=CCCC[C@H](NC(=O)CC(C)C)C(=O)N[C@@H]([C@@H](C)O)C(=O)N[C@@H](Cc2c[nH]cn2)C(=O)N[C@@H](C(c2ccccc2)c2ccccc2)C(=O)N2CCC[C@H]2C(=O)N[C@@H](C)C(=O)N[C@@H]([C@@H](C)CC)C(=O)N1)C(=O)N[C@H](CCCCN)C(N)=O [Compd 28] | 1 to 10 | 1 to 10 |
| CCCCCCCCCCCCCCCC(=O)NCCCCCC(=O)NCCCC[C@H](NC(=O)C[C@H](Cc1ccccc1)NC(=O)[C@@H]1CCC=CCCC[C@H](NC(=O)CC(C)C)C(=O)N[C@@H]([C@@H](C)O)C(=O)N[C@@H](Cc2c[nH]cn2)C(=O)N[C@@H](C(c2ccccc2)c2ccccc2)C(=O)N2CCC[C@H]2C(=O)N[C@@H](C)C(=O)N[C@@H]([C@@H](C)CC)C(=O)N1)C(=O)N[C@H](CCCCN)C(N)=O [Compd 29] | 1 to 10 | 1 to 10 |
| CCCCCCCCCCCCCCCC(=O)NCCCCCC(=O)NCCCC[C@H](NC(=O)C[C@H](Cc1ccccc1)NC(=O)[C@@H]1CC=CCCC[C@H](NC(=O)CC(C)C)C(=O)N[C@@H]([C@@H](C)O)C(=O)N[C@@H](Cc2c[nH]cn2)C(=O)N[C@@H](C(c2ccccc2)c2ccccc2)C(=O)N2CCC[C@H]2C(=O)N[C@@H](C)C(=O)N[C@@H]([C@@H](C)CC)C(=O)N1)C(=O)N[C@H](CCCCN)C(N)=O [Compd 30] | 1 to 10 | 1 to 10 |
| CCCCCCCCCCCCCCCC(=O)NCCCCCC(=O)NCCCC[C@H](NC(=O)C[C@H](Cc1ccccc1)NC(=O)[C@@H]1CCCC=CCC[C@H](NC(=O)CC(C)C)C(=O)N[C@@H]([C@@H](C)O)C(=O)N[C@@H](Cc2c[nH]cn2)C(=O)N[C@@H](C(c2ccccc2)c2ccccc2)C(=O)N2CCC[C@H]2C(=O)N[C@@H](C)C(=O)N[C@@H]([C@@H](C)CC)C(=O)N1)C(=O)N[C@H](CCCCN)C(N)=O [Compd 31] | 10 to 100 | 10 to 100 |
| CCCCCCCCCCCCCCCC(=O)NCCCCCC(=O)NCCCC[C@@H]1NC(=O)[C@@H]2CCCN2C(=O)[C@H](C(c2ccccc2)c2ccccc2)NC(=O)[C@H](Cc2c[nH]cn2)NC(=O)[C@H]([C@@H](C)O)NC(=O)[C@@H](NC(=O)CC(C)C)CCCC=CCCC[C@@H](C(=O)N[C@H](CC(=O)N[C@H](CCCCN)C(N)=O)Cc2ccccc2)NC(=O)[C@H]([C@@H](C)CC)NC1=O [Compd 33] | 1 to 10 | 1 to 10 |
| CCCCCCCCCCCCCCCC(=O)NCCCCCC(=O)NCCCC[C@@H]1NC(=O)[C@H](C)NC(=O)[C@@H]2CCCN2C(=O)[C@H](C(c2ccccc2)c2ccccc2)NC(=O)[C@H](Cc2c[nH]cn2)NC(=O)[C@H]([C@@H](C)O)NC(=O)[C@@H](NC(=O)CC(C)C)CCCC=CCCC[C@@H](C(=O)N[C@H](CC(=O)N[C@H](CCCCN)C(N)=O)Cc2ccccc2)NC1=O [Compd 34] | 1 to 10 | 1 to 10 |
| CCCCCCCCCCCCCCCC(=O)NCCCCCC(=O)NCCCC[C@@H]1NC(=O)[C@@H]2CCCN2C(=O)[C@H](C(c2ccccc2)c2ccccc2)NC(=O)[C@H](Cc2c[nH]cn2)NC(=O)[C@H]([C@@H](C)O)NC(=O)[C@@H](NC(=O)CC(C)C)CCC=CCC[C@@H](C(=O)N[C@H](CC(=O)N[C@H](CCCCN)C(N)=O)Cc2ccccc2)NC(=O)[C@H]([C@@H](C)CC)NC1=O [Compd 36] | 10 to 100 | 1 to 10 |
| CCCCCCCCCCCCCCCC(=O)NCCCCCC(=O)NCCCC[C@H](NC(=O)C[C@H](Cc1ccccc1)NC(=O)[C@@H]1CCC=CCC[C@H](NC(=O)CC(C)C)C(=O)N[C@@H](C)C(=O)N[C@@H](Cc2c[nH]cn2)C(=O)N[C@@H](C(c2ccccc2)c2ccccc2)C(=O)N2CCC[C@H]2C(=O)N[C@@H](C)C(=O)N[C@@H]([C@@H](C)CC)C(=O)N1)C(=O)N[C@H](CCCCN)C(N)=O [Compd 41] (Isovaleryl-[Hag]AH[Dip]PAI[Hag][β3hF]K([Ahx-Palmitoyl])[dK]-NH2; staple 1-8) | 100 to 500 | 100 to 500 |
| CCCCCCCCCCCCCCCC(=O)NCCCCCC(=O)NCCCC[C@H](NC(=O)C[C@H](Cc1ccccc1)NC(=O)[C@@H]1CCC=CCC[C@H](NC(=O)CC(C)C)C(=O)N[C@@H]([C@@H](C)O)C(=O)N[C@@H](C)C(=O)N[C@@H](C(c2ccccc2)c2ccccc2)C(=O)N2CCC[C@H]2C(=O)N[C@@H](C)C(=O)N[C@@H]([C@@H](C)CC)C(=O)N1)C(=O)N[C@H](CCCCN)C(N)=O [Compd 42] (Isovaleryl-[Hag]TA[Dip]PAI[Hag][β3hF]K([Ahx-Palmitoyl])[dK]-NH2; staple 1-8) | 100 to 500 | 100 to 500 |
| CCCCCCCCCCCCCCCC(=O)NCCCCCC(=O)NCCCC[C@H](NC(=O)C[C@H](Cc1ccccc1)NC(=O)[C@@H]1CCC=CCC[C@H](NC(=O)CC(C)C)C(=O)N[C@@H]([C@@H](C)O)C(=O)N[C@@H](Cc2c[nH]cn2)C(=O)N[C@@H](C(c2ccccc2)c2ccccc2)C(=O)N2CCC[C@H]2C(=O)N[C@@H](C)C(=O)N[C@@H](C)C(=O)N1)C(=O)N[C@H](CCCCN)C(N)=O [Compd 45] (Isovaleryl-[Hag]TH[Dip]PAA[Hag][β3hF]K([Ahx-Palmitoyl])[dK]-NH2; staple 1-8) | 10 to 100 | 10 to 100 |
| CCCCCCCCCCCCCCCC(=O)NCCCCCC(=O)NCCCC[C@H](NC(=O)[C@H](C)NC(=O)[C@@H]1CCC=CCC[C@H](NC(=O)CC(C)C)C(=O)N[C@@H]([C@@H](C)O)C(=O)N[C@@H](Cc2c[nH]cn2)C(=O)N[C@@H](C(c2ccccc2)c2ccccc2)C(=O)N2CCC[C@H]2C(=O)N[C@@H](C)C(=O)N[C@@H]([C@@H](C)CC)C(=O)N1)C(=O)N[C@H](CCCCN)C(N)=O [Compd 46] (Isovaleryl-[Hag]TH[Dip]PAI[Hag]AK([Ahx-Palmitoyl])[dK]-NH2; staple 1-8) | 100 to 500 | 100 to 500 |
| CC[C@H](C)[C@@H]1NC(=O)[C@H](C)NC(=O)[C@@H]2CCCN2C(=O)[C@H](C(c2ccccc2)c2ccccc2)NC(=O)[C@H](Cc2c[nH]cn2)NC(=O)[C@H]([C@@H](C)O)NC(=O)[C@@H](NC(=O)CC(C)C)CCC=CCC[C@@H](C(=O)N[C@H](CC(=O)N[C@@H](C)C(=O)N[C@H](CCCCN)C(N)=O)Cc2ccccc2)NC1=O [Compd 47] (Isovaleryl-[Hag]TH[Dip]PAI[Hag][β3hF]A[dK]-NH2; staple 1-8) | 10 to 100 | 10 to 100 |
